The values that follow come from a melting point compilation (Tetko et al.; mined from patent text by program, amines drawn as free bases though some values may be those of a salt).

Bounds are passed on as bounds.

As for `N#Cc1cc2ccc(Cl)cc2[nH]c1=O`, the melting point (usually the temperature of the solid-liquid transition) lay within 306 to 309 °C.
On to `COc1ccc(C(CC(N)=O)N2C(=O)c3ccccc3C2=O)cc1` (stereo not drawn), for which the melting point lay within 183 to 188 °C.
As for `COc1cc(CO)cnc1Cl`, the figure is 60 to 63 °C.
The compound `COc1ccc(CN2C(=O)C(CCO)Oc3ccccc32)cc1` (stereo not drawn) registered a melting point of 80 to 82 °C.
For the compound `CCOC(=O)N(CC)c1c(OC)cc(Cc2cnc(N)nc2N)cc1OC`, the melting point is 165 to 167 °C.
On to `NC(=O)N1c2ccccc2CC(O)c2ccccc21` (stereo not drawn), for which the melting point lay in the range of 70.4 to 101 °C.
The compound `CN1CS(=O)c2cccc(Cl)c21` (stereo not drawn) gave a melting point of 130 to 132 °C.
With `Cn1c(C=Cc2ccccc2)cnc1[N+](=O)[O-]`, the melting point is 170 to 180 °C.
As for `CC[C@@H](c1ccccc1)N(Cc1ccc(C(=O)O)cc1OC)S(=O)(=O)c1ccc(Cl)cc1`, the melting point lay within 176 to 178 °C.
As for `COc1cc(OC)cc(-c2ncn(CCO)c2-c2ccc(OC)c(F)c2)c1`, the melting point lay within 202 to 204 °C.
In turn, `Nc1nc(N)c(CCCNc2ccc(C(=O)N[C@@H](CCC(=O)O)C(=O)O)c(Cl)c2)c(=O)[nH]1` showed a melting point of 150 to 178 °C.
As to `COc1ccc(C(=O)NC2CCCCC2)c2c1OCC2C(=O)OCc1ccccc1` (stereo not drawn), the melting point lay within 178 to 179 °C.
`N#CSc1ccc(N)c(N)c1` came in with a melting point of 108 to 110 °C.
As for `CCCCC1(CCCC)CCc2c(OCc3ccc4ccccc4n3)ccc(F)c2C1O` (stereo not drawn), the figure is 128 to 129 °C; as for `COc1ccc(-c2cnc3[nH]cc(C(=O)NC4CCN(C)C4)c3n2)cc1OC` (stereo not drawn), 193 to 194 °C; as for `O=[N+]([O-])c1cccc(-c2cc(C(O)c3ccnc(Cl)c3)cc3ccoc23)c1` (stereo not drawn), 178 to 180 °C.
Compound `COCCOCCOc1cc(OC)c(/C=C/C(=O)c2ccc(C(=O)O)cc2)cc1-c1cccs1` showed a melting point of 174 to 175 °C.
As for `Cc1cccc2c1nc(COc1ccc(Cl)cc1)n2CCC(C)C(=O)NCCCN1CCCCC1` (stereo not drawn), the melting point lay in the range of 102 to 103 °C.
The compound `CS(=O)(=O)c1cccc(-n2ccc(=O)c(-c3ccnn3-c3ccccc3)n2)c1` gave a melting point of 199 to 200 °C.
`O=Cc1c(O)cccc1OCc1cccc(C(=O)O)c1`: the melting point was in the range of 209 to 211 °C.
`CNc1cc(C)nc2c(S(=O)(=O)c3ccccc3)c(SC)nn12` showed a melting point greater than 230 °C.
Compound `CCc1ccccc1/C(N)=C1\Sc2ccccc2C1=O` gave a melting point of 132 to 133 °C.
In turn, `COc1cc(C)c2c(=O)c3c(OC)cccc3oc2c1OC` registered a melting point of 158 °C.
In turn, `CC(C)(C)S(=O)c1cccc(F)c1C(=O)NCCCl` (stereo not drawn) returned a melting point of 80 to 90 °C.
On to `CCC(=O)c1ccc(OC(C)(C)C(=O)OC)cc1`, for which the melting point fell in the range of 47 to 49 °C.
In the case of `Cc1cc(C(=O)Nc2ccccc2)c(C)o1`, the melting point was 92 to 93 °C.
Take `CC(C)C[C@H](N)C(=O)NCCCCNC(=O)OCc1ccccc1`: the melting point was 137 to 139 °C.
The compound `Cc1ccc(S(=O)(=O)N(C)c2ccc(Cl)cc2S(C)=O)cc1` (stereo not drawn) had a melting point of 142 to 144 °C.
`COc1ccc2c(NC(C)=O)c(C(=O)c3ccccc3)[nH]c2c1` gave a melting point of 144 to 146 °C.
As for `Cc1c(F)cc(C(C)(C)C)c(O)c1-c1nc2ccc(S(=O)(=O)C(F)(F)F)cc2c(=O)[nH]1`, the figure is 257 to 258 °C.
Take `Cc1c(C(=O)c2cccs2)cccc1C(C)C(=O)O` (stereo not drawn): the melting point came to 100 °C.
Turning to `CCCCOc1ccc(-c2nc3n(c2-c2ccc(OCCCC)cc2)CCS3)cc1`, the melting point was 149 to 151 °C.
Consider `COc1ccc(-c2c(Cl)c(CNC(C)=O)nc3sc4c(c23)CCN(Cc2ccccc2)C4)cc1OC`, for which the melting point was in the range of 172 to 174 °C.
`CCn1cc(C(=O)O)c(=O)c2cc(F)c(N3CCN(C)C(c4cccs4)C3)cc21` (stereo not drawn) registered a melting point of 238 to 240 °C.
As for `Cc1sc(S(C)(=O)=O)nc1-c1ccccc1`, the figure is 114 to 115 °C; as for `CN1CCc2ccccc2C1=NNC(=O)Nc1ccc(C(F)(F)F)cc1`, 101 to 104 °C.
As for `CCOc1ccc2c(c1)CCN(C(=O)OCc1ccccc1)C21CCC(C(=O)O)(C(=O)O)CC1`, the figure is 184 to 185 °C; as for `COc1ccc(C2=C(c3ccccc3)CCCc3cc(O)ccc32)cc1`, 232 to 233 °C.
As for `Cc1ccccc1C(Nc1ccncc1)c1ccccc1` (stereo not drawn), the figure is 141 to 143 °C; as for `Cc1sc(Cc2ccccc2)c(-c2ccc(-c3ccc(OS(=O)(=O)c4ccc(C(=O)O)c(O)c4)cc3)cc2)c1C`, 173 to 175 °C; as for `COC1CCc2c(c(C)[nH]c(=O)c2C#N)C1` (stereo not drawn), 257 to 259 °C.
For the compound `O=c1ccc(C(F)(F)F)cn1-c1ccc(NCCCN2CCCCC2)cc1Cl`, the melting point is 112 to 115 °C.
As for `Cc1nc(N2CCc3ccccc3CC2)c(C#N)c(=O)n1N(C)C(=O)OC(C)(C)C`, the melting point was 164 to 166 °C.
Consider `COc1cc2c(cc1Nc1ncc(Cl)c(Nc3cccnc3OC)n1)CCN(CC(=O)N(C)C)CC2`, for which the melting point was 68 to 76 °C.
As for `CN1CCN(c2cc(Cl)cc3c2c(=O)n(Cc2ccccc2Cl)c(=O)n3Cc2ccccc2)CC1`, the figure is 87 to 92 °C; as for `O=S(=O)(NCC(O)(Cn1cncn1)c1ccc(Cl)cc1Cl)c1ccc(Cl)cc1` (stereo not drawn), 182 to 183 °C; as for `Nc1sc2c(c1C(=O)c1ccc(Cl)cc1)CCN(CCCc1ccccc1)C2`, 98 to 100 °C.
The compound `O=C1Nc2cc(F)ccc2C1c1ncnc2c1cnn2C1CCCC1` (stereo not drawn) displayed a melting point of 230 to 233 °C.
Consider `CC(=NNC(=S)N1CCCCCC1)c1ccc2ccccc2n1`, for which the melting point was in the range of 129 to 131 °C.
The compound `C=CCc1cc(C=CNC(=O)OC)ccc1OCC(O)CNC(C)C` (stereo not drawn) returned a melting point of 128 to 129 °C.
Consider `CSC(=C[N+](=O)[O-])NCCSCc1ccccn1`, for which the melting point fell in the range of 95.5 to 96.5 °C.
`O=C(O)COc1cc(F)c(-c2ccccc2)cc1C(=S)NCc1cccc([N+](=O)[O-])c1`: the melting point lay within 177 to 179 °C.
The compound `Cc1ccc(C2=C(c3ccc(S(N)(=O)=O)cc3)CCC2)cn1` showed a melting point of 108 to 110 °C.
Turning to `COC(=O)c1cc(N)c(N2CCCCC2)c(N)c1`, the melting point fell in the range of 133 to 134 °C.
As to `COC(=O)C(=O)c1ccc(OCCOc2ccc(C)cc2)cc1`, the melting point was in the range of 105 to 107 °C.
On to `COc1ccccc1C(Cc1ccccc1)(Cn1cncn1)C(=O)O` (stereo not drawn), for which the melting point is 250 to 252 °C.
For `COc1ccccc1CCSc1c(O)cc(-c2ccccc2)oc1=O`, the melting point lay within 114 to 115 °C.
`COc1cnnc(Oc2ccnc(OC(C)C(F)(F)F)c2)c1` (stereo not drawn) registered a melting point of 100 to 102 °C.
As for `COc1ccc2c(c1OC)CCC1=C2CCC(=O)N1`, the figure is 231 °C; as for `CCOc1cc(C)ccc1C1CCN(CCCCNC(=O)c2ccc(NC(=O)c3ccc(Cl)cc3)cc2)CC1`, 254 °C; as for `O=C1OCCC1C(=O)c1ccccc1[N+](=O)[O-]` (stereo not drawn), 75 to 76 °C.
In turn, `NC(=O)c1cccc(OCc2ccccc2)c1` yielded a melting point of 136 to 140 °C.
Consider `Nc1ncnc2c1ncn2C(c1ccccc1)(c1ccccc1)c1ccccc1`, for which the melting point fell in the range of 260 to 262 °C.
As to `FC(F)c1cc(Cl)nc2c1c(I)nn2C1CCCCO1` (stereo not drawn), the melting point was found to be 157 °C.
Compound `C(=Cc1ccc(N(c2ccccc2)c2ccccc2)cc1)c1ccc(N(c2ccccc2)c2ccccc2)cc1` returned a melting point of 247 to 259 °C.
Compound `CCOC(=O)c1ccc(NC(=O)c2cc(C)no2)cc1` registered a melting point of 160 to 163 °C.
The compound `COc1ccc2cccc(C(C#N)O[Si](C)(C)C)c2c1` (stereo not drawn) came in with a melting point of 123 to 125 °C.
In turn, `COC(=O)CCCc1c(-c2ccc(F)cc2)[nH]c2ccc(-c3ccc([N+](=O)[O-])cc3)cc12` registered a melting point of 190 to 191 °C.
`CCCCn1c(NCCC)nc2ccc(Br)cc2c1=O` showed a melting point of 71 to 73 °C.
For the compound `CN(C)C(=O)c1nc(-c2ccccc2)nc2[nH]c3ccccc3c12`, the melting point lay in the range of 218 to 219 °C.
`c1ccc(CN(CCNC(c2ccccc2)c2ccccc2)Cc2ccccc2)cc1` came in with a melting point of 89 to 91 °C.
`CCCCNC(=O)c1ccc(S(=O)(=O)NC(=O)c2ccc(C(=O)NCC(=O)OC)nc2)cc1` had a melting point of 215 to 217 °C.
`C[C@@]1(F)[C@H](OC(=O)c2ccccc2)[C@@H](COC(=O)c2ccccc2)O[C@H]1n1cnc2c(Cl)nc(N)nc21` returned a melting point of 160 to 162 °C.
Regarding `Cc1ccc(S(=O)(=O)N2[C@@H](CC#N)CC[C@H]2c2ccc(F)cc2)cc1` (racemic), the melting point turned out to be 116 °C.
As for `Cc1cc2c(c(C)c1Br)C(c1ccc(C(C)C)cc1)CO2` (stereo not drawn), the figure is 90 to 91 °C; as for `CCSCCCN(C)c1c(S(=O)(=O)C(F)(F)F)c(C#N)nn1-c1c(Cl)cc(C(F)(F)F)cc1Cl`, 89 °C; as for `CCCCCCCCCCCCCCCCNC(=O)OCC(CO)OC` (stereo not drawn), 47.5 to 48 °C.
With `CN1Cc2cscc2Nc2ccccc21`, the melting point lay in the range of 110 to 112 °C.
`Cc1cn(-c2cc(NC(=O)c3cccc4cc(Oc5ccnc(N)c5)ccc34)cc(C(F)(F)F)c2)cn1` yielded a melting point of 236 to 239 °C.
For the compound `Cc1cc2cc(O)ccc2[nH]1`, the melting point fell in the range of 124 to 126 °C.
Compound `O=S1(=O)N=C(NC2CCC2)Nc2cc(Cl)c(Cl)cc21` showed a melting point of 320 to 326 °C.
For the compound `COC(=O)C1=C(C)N=C(OC)N(C(=O)NCCCC(=O)OC(C)(C)C)C1c1ccc(F)cc1` (stereo not drawn), the melting point lay in the range of 135 to 138 °C.
For `CC1(C)Oc2ccncc2[C@@H](Oc2ccccn2)[C@@H]1O` (relative stereo), the melting point stood at 207 °C.
`CCSc1cc(C)nc(SCC)c1NC(=O)CCCCCCCSc1nc2ccccc2s1` had a melting point of 94 to 96 °C.
With `COc1cc(C)ccc1OCCCN1CCC(C(O)(c2ccc(F)cc2)c2ccc(F)cc2)CC1`, the melting point was in the range of 121 to 122 °C.
In the case of `COc1ccc2[nH]c(SCC3(N4CCCC4)NC=NC(N4CCCC4)=C3C)nc2c1` (stereo not drawn), the melting point was in the range of 104 to 106 °C.
For `CCCCNC(=O)NS(=O)(=O)c1cccc(C(=O)OC)c1I`, the melting point lay in the range of 163 to 167 °C.
With `COc1ccc(CC(=O)c2c(O)c3cccnc3n(-c3ccccc3)c2=O)c(OC)c1`, the melting point was in the range of 200 to 202 °C.
